“And” between values parts separate entries of the source, which are not always exact repeats. Identical values can stand only once. Like-named read-outs stand apart in the source and are kept apart here.

One may read the IC50 as the concentration needed to halve the response being measured. Broadly, the Ki is the dissociation constant of the complex between target and ligand, obtained from inhibition or displacement. Low values mean higher affinity, high ones lower affinity. As usually defined, the EC50 is the concentration at which the effect is half-maximal. As a reminder, the ED50 is the midpoint of the dose-response relation.

The target of experiment [1] is T1, hVR1 receptors (Homo sapiens, UniProt Q8NER1). Put plainly: Broadly stimulated recombinant human VR1 functional assay (Ca2+ influx, FLIPR). In kind it is cell-based. More on the design: expressed in transfected cells; host or cells: HEK293.
The target in experiment [2] is T2, Rat VR1 (Rattus norvegicus, UniProt O35433). Put plainly: Broadly stimulated recombinant rat VR1 functional assay (Ca2+ influx, FLIPR). In kind it is cell-based. Further details: expressed in transfected cells. From the text:
When nociceptors are exposed to tissue damaging stimuli, VR1 receptors are activated by a plethora of stimuli. In an effort to identify potent and efficacious antagonists at human and rat VR1 that were active under conditions simulating aspects of in vivo inflammation functional assays were developed using FLIPR to determine antagonist activity against endogenous activators and stimuli likely to be present in inflammation. Cell lines were constructed that stably expressed recombinant rat VR1 (rVR1/HEK293). Cells were exposed to various stimuli at their EC80, with the exception of the low pH and DTT stimuli.
Phoshorylation by PKC. […] Cells were challenged with 300 nM PMA (˜EC80) after 3 min in the indicated antagonist.
Anandamide. Anandamide is a brain-derived cannabinoid ligand that acts as a near full agonist at VR1 at low μM concentrations [Smart, 2000 #507].
Reactive oxygen species: Disturbances in the regulatory activities of free radicals may play a role in inflammation [Winrow, 1993]. Reactive oxygen species (ROS) such as H2O2 are formed in inflamed joints.
Reducing agents: The reducing agent DTT also directly activates VR1 [Vyklicky, 2002]. Cells were challenged with 5-10 mM DTT to stimulate VR1 after 3 min incubation in compound.
Since many of our animal models were in rat, we cloned the rat VR1 and expressed it stably in HEK293 cells.

Experiment [3] relates to capsaicin-induced cough responses. Briefly: Capsaicin-induced cough (antitussive efficacy). In kind it is in vivo, guinea pig. To be noted: codeine 25 mg/kg IP at -60 min; capsaicin aerosol 15 μM; vehicle 3.0±0.5; P<0.001. Here is the method:
The antitussive activity of intraperitoneally (IP) administered compound is assessed at a single dose level against capsaicin-induced cough responses as compared to positive and vehicle controls. Thirty-six male Dunkin-Hartley guinea pigs (295-590 g, mean=425 g) are randomly allocated to one of three groups (n=12 guinea pigs per group). […] Guinea pigs are dosed IP at —60 min with vehicle (15% Solutol in 5% dextrose solution); the positive control codeine (25 mg/kg), or test compound (20 mg/kg in 15% Solutol in 5% dextrose solution). Individual guinea pigs are placed in an exposure chamber with an airflow of 3 L/min at —10 min to acclimatize. […] The mean ±SEM number of capsaicin-induced cough responses recorded in vehicle pre-treated guinea pigs was 3.0±0.5. […] ANOVA statistical analysis was used to determine the level of significance.

Experiment [4] has as its target T1, hVR1 receptors. Put plainly: [3H] RTX binding assay, human VR1. More on the design: expressed in transfected cells; host or cells: HEK293 (membrane preparation). The following applies: inhibition of [3H] RTX binding, membranes of HEK293 cells transfected with human VR1. Here is the method: Compounds of the present invention were tested for their ability to inhibit the binding of [^3H] RTX to hVR1 receptors in a [^3H] RTX binding assay as previously described (Zhang, Sui-Po. Improved ligand binding assays for vanilloid receptors. PCT Int. Appl. (2002), 29 pp. CODEN: PIXXD2 WO 0233411 A1 20020425 AN 2002:315209; Grant, Elfrida R.; Dubin, Adrienne E.; Zhang, Sui-Po; Zivin, Robert A.; Zhong, Zhong Simultaneous intracellular calcium and sodium flux imaging in human vanilloid receptor 1 (VR1)-transfected human embryonic kidney cells: a method to resolve ionic dependence of VR1-mediated cell death. Journal of Pharmacology and Experimental Therapeutics (2002), 300(1), 9-17.)
HEK293 cells were transfected with human VR1 vanilloid receptors and washed with Hank's Balanced Salt Solution, dissociated with cell dissociation buffer (Sigma), and then centrifuged at 1000×g for 5 min. Cell pellets were homogenized in cold 20 mM HEPES buffer, pH 7.4, containing 5.8 mM NaCl, 320 mM sucrose, 2 mM MgCl2, 0.75 CaCl2 and 5 mM KCl and centrifuged at 1000×g for 15 min. The resultant supernate was then centrifuged at 40000×g for 15 min. The pelleted membranes were kept in an −80° C. freezer.
Approximately 120 μg protein/ml from membranes were incubated with indicated concentrations of [^3H] RTX in 0.5 ml of the HEPES buffer (pH 7.4) containing 0.25 mg/mL fatty acid-free bovine serum albumin at 37° C. for 60 min. The reaction mixture was then cooled to 4° C., 0.1 mg α1-acid glycoprotein added to each sample and incubated at 4° C. for 15 min. The samples were centrifuged at 18500×g for 15 min. The tip of the microcentrifuge tube containing the pellet was cut off. Bound radioactivity was quantified by scintillation counting. Non-specific binding was tested in the presence of 200 nM unlabeled RTX.

The test system of experiment [5] is capsaicin-induced guinea pig bronchial ring contraction. Put plainly: Isolated guinea pig bronchial rings, capsaicin-induced contraction (organ bath). To be noted: capsaicin concentration-response shift; 105 at 1000 nM; ±SEM. Here is the method: Aminotetralin VR1 antagonists were tested for their potency to block capsaicin-induced guinea pig bronchial ring contraction in a standard in vitro organ bath assay [Tucker, 2001]. Two mm rings of bronchial tissue obtained from male guinea pigs (325 g) were suspended in normal Krebs solution between two wire hooks under an initial loading tension of 1 gram. The saline was maintained in a 5% CO2 and 95% O2 atmosphere at 37° C. in the presence of indomethacin (5 μM). A sub-maximal dose of 5-Methylfurmethide (5Mef, 1 μM) was added to each tissue to determine responsiveness using an isometric force transducer. After washout, tissues were exposed to compounds or vehicle for 30 min, treated with thiorphan (10 μM, 5% Na2CO3), and primed using KCl in increasing linear concentrations from 1 mM at 1 mM intervals until a slight increase in muscle tone was induced (˜1% of 5Mef response). […] The dose response curve was calculated as % max of the 5-Mef response and estimated pA2 were determined [Tucker, 2001]).

The subject of experiment [6] is carrageenan paw-induced thermal hyperalgesia. Briefly: Carrageenan paw-induced thermal hyperalgesia. In kind it is in vivo, rat. To be noted: Rattus norvegicus, po. Here is the method: Each rat was placed on a heated surface (51° C.) in order to measure the time necessary to elicit a response, and an initial (baseline) response time to a thermal stimuli was recorded for each animal. A response is defined as any shaking, licking, or tucking of the treated paw or jumping. Animals not treated with a test compound respond in approximately 20 seconds. The maximal exposure time permitted is 60 seconds to prevent tissue damage. Rats were injected with an irritant (e.g., 1% carrageenan solution in 0.9% saline) subcutaneously into the sub-plantar tissue of the left hind paw to stimulate an acute inflammatory reaction.
Two hours later, the response time of the animal to the thermal stimulus was evaluated and compared to the animal's baseline response time. This shorter response time was recorded as percent hyperalgesia (% H). A cut-off value for % H (usually 75%) was used during analysis to ensure that the animals were hyperalgesic. Animals were then dosed with test drug or vehicle.
At some time(s) later (typically 45 and 90 minutes), the response time of the animal to the thermal stimulus was again evaluated. For each time point, a percent reversal of hyperalgesia (% R) was calculated using the following formula: % R=(Drug Latency−Carrageenan latency)/(Baseline latency−Carrageenan latency). ED50 values were calculated from % R obtained at several drug doses.
(In general: In the carrageenan paw model, swelling and tenderness develop within hours.)

Experiment [7] concerns the target T3, VR1 expressed endogenously on small rat dorsal root ganglion (DRG) neurons (Rattus norvegicus, UniProt O35433).
T3 construct: VR1 expressed endogenously on small rat dorsal root ganglion (DRG) neurons; endogenous in cells; host or cells: dissociated DRG neurons from normal rats
Put plainly: Electrophysiologic functional assay using dissociated rat DRG cells (whole cell patch clamp). In kind it is cell-based. The following applies: compound concentration 1 uM; initial response to 0.3 uM capsaicin. Here is the method: Compounds 42, 95, 101, 105 and 106 were tested for their activity on VR1 expressed endogenously on small rat dorsal root ganglion (DRG) neurons. DRG neurons from normal rats were dissociated (see methods in Chaplan et al., 2003) and whole cell currents mediated by VR1 were recorded using the whole cell patch clamp technique. […] This was followed by application of 10 μM CAP in the presence of compound. […] The ability of 1 and 10 μM CAP to cause an increased current after exposure to a compound of the invention was compared to controls.
On the technique in general: In patch-clamp work, channel activity is measured electrically.

Experiment [8] concerns the target T2, Rat VR1. Put plainly: [3H]-RTX binding assay using rat tissue (spinal cord). Further details: Rat spinal cord was homogenized twice with a Polytron; from tissue; host or cells: rat spinal cord membranes. To be noted: rat spinal cord membranes. Here is the method: Alternatively, a binding assay using rat tissue was used. Rat spinal cord was homogenized twice with a Polytron and centrifuged at 3000 rpm for 10 min in HEPES buffer containing 20 mM HEPES, pH 7.4, NaCl 5.8 mM, sucrose 320 mM, MgCl2 2 mM, CaCl2 0.75 mM and KCl 5 mM. The supernatant was then centrifuged at 18,000 rpm for 20 min. The pellet was saved in a tube and 10 ml assay buffer was added into the tube. The pellet and buffer were mixed with a Polytron. The assay contained 120 μg/ml membrane protein and 0.3-0.6 nM [^3H]-RTX (NEN, Boston) in a total volume of 0.5 ml HEPES buffer. Following-incubation for 60 min at 37 C, the samples were cooled down on ice, and 100 mg of α-acid glycoprotein were added into the samples. After centrifugation at 13,000 rpm for 15 min, the supernatant was aspirated and the tips of tubes were cut off and placed into 6 ml vials. Data were calculated according to the equation: % inhibition=(total binding−binding)*100/(total binding−non specific binding). Ki value values were calculated using a Prism program.

Where [9] appears, read: recombinant human VR1, stimulus low pH (pH 6.5), Ca2+ influx, read-out: IC50, Low pH.
Where [10] appears, read: recombinant rat VR1, stimulus anandamide 10 μM, Ca2+ influx, read-out: IC50, Anandamide.

T2 sequence (O35433 whole entry): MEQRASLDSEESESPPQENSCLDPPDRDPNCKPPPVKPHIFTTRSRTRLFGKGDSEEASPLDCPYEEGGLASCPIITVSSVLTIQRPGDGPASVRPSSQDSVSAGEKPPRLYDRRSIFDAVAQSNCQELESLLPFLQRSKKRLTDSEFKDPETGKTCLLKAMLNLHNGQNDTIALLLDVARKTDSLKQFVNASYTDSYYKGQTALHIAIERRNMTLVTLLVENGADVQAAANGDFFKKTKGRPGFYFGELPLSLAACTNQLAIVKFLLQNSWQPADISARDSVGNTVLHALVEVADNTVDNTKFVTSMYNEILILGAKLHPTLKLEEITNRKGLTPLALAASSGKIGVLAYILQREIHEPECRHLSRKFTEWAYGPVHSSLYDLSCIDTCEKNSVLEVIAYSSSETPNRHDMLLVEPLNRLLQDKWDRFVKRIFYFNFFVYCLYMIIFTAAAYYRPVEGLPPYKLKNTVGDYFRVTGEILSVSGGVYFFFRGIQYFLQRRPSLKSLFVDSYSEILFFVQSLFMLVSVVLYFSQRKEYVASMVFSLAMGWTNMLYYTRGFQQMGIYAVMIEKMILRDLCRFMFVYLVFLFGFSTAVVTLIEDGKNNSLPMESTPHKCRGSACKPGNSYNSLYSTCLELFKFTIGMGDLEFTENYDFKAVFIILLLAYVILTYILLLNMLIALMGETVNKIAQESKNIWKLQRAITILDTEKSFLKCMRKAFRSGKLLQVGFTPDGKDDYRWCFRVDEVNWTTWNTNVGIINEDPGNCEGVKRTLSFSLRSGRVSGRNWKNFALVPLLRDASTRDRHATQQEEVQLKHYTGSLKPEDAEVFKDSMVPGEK
T1 sequence (Q8NER1 whole entry): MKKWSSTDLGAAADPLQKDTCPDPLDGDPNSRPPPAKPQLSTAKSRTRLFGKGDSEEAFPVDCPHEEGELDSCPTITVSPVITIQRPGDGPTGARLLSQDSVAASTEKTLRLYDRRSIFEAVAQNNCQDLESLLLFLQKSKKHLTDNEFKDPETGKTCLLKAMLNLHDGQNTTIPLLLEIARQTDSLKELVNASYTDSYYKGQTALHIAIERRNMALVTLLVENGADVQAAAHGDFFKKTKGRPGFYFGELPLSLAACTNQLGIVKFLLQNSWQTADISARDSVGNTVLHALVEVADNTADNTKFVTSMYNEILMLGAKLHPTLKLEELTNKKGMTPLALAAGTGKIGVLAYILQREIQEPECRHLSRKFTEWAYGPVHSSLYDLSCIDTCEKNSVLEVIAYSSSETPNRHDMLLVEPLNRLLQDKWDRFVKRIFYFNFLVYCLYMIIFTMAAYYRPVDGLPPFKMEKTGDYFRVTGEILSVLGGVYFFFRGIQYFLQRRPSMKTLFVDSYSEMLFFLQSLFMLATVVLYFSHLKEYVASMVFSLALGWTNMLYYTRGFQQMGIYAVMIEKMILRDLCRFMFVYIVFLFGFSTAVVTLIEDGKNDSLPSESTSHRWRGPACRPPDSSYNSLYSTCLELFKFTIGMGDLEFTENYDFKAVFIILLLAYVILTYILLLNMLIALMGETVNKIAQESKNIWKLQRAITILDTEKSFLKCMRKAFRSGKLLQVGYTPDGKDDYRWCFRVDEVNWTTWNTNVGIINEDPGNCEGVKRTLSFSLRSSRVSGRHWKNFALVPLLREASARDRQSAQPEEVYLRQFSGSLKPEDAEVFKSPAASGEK
T3 sequence (O35433 whole entry): as the sequence (O35433 whole entry) above

For the compound `Cl.Cl.Cl.Cl.Cl.Cl.N.N.N.N.N.N.N.N.N.N.N.N.N.N.[O-2].[O-2].[Ru+3].[Ru+3].[Ru+4]` [Ruthenium Red, ruthenium red, reference compound], the IC50 was determined as 500 nM at hVR1 receptors [1] (recombinant human VR1, stimulus 300 nM PMA, Ca2+ influx, read-out: IC50, PKC phosphorylation); 500 nM at hVR1 receptors [1] (setting [9]); 300 nM at Rat VR1 [2] (recombinant rat VR1, stimulus 300 nM PMA, Ca2+ influx, read-out: IC50, PKC phosphorylation); 1860 nM at Rat VR1 [2] (setting [10]).

As to `COc1ccc2c3c1O[C@H]1[C@@H](O)C=C[C@H]4[C@@H](C2)N(C)CC[C@@]341` [codeine], in experiment [3], the “number of capsaicin-induced cough responses (mean ±SEM)” value worked out at 0.58±0.15 coughs.

On to `O=C(Nc1cccc2cnccc12)NC1CCc2cc(F)ccc2C1Cc1ccccc1` (racemic) [Compound 38a, 1-(1-Benzyl-6-fluoro-1,2,3,4-tetrahydronaphthalene-2-yl)-3-isoquinolin-5-yl-urea], for which the Ki at hVR1 receptors [4] is 1.76 nM. The “Estimated pA2” value in experiment [5] is 8.0 and 8.0±0.02.

With `CCCCCCCCCCCCCC(=O)O[C@@H]1[C@@H](C)[C@@]2(O)[C@@H](C=C(CO)C[C@]3(O)C(=O)C(C)=C[C@@H]23)[C@@H]2C(C)(C)[C@]12OC(C)=O` [PMA, phorbol-12-myristate-13-acetate, reference compound], the EC50 worked out at 90 nM at hVR1 receptors [1] (human recombinant VR1, increase in intracellular Ca2+, read-out: EC50 for PMA) and 90 nM on Rat VR1 [2] (rat recombinant VR1, increase in intracellular Ca2+, read-out: EC50 for PMA).

As to `O=C(Nc1cccc2c(Cl)nccc12)NC1CCc2cc(F)ccc2C1Cc1ccccc1` (single isomer, unassigned) [Compound 105], the ED50 in experiment [6] (1.5 h, p.o., at 90 min, read-out: ED50) was 0.394 mg/kg. Further, the figures for the Ki at hVR1 receptors [4] and on Rat VR1 [8] were 10.8 nM and 4920 nM, respectively. Moreover, the “% of the initial CAP response in presence of 1 uM CAP” value in experiment [7] is 0% and 8%. In addition, the “Estimated pA2” value in experiment [5] was 6.2 and 6.2±0.11 and 6.2 +/− 0.11.

In the case of `COc1ccc2c(c1)CCC(NC(=O)Nc1cccc3cnccc13)C2Cc1ccccc1` (stereo not drawn) [Compound 33, 1-(1-Benzyl-6-methoxy-1,2,3,4-tetrahydronaphthalene-2-yl)-3-isoquinolin-5-yl-urea], the ED50 in experiment [6] (reversal of hyperalgesia, read-out: CgHP ED50) was 0.276 mg/kg. Besides, the “increase in intracellular Ca2+ caused by acidic solutions, anandamide, PMA and H2O2” value on hVR1 receptors [1] (human recombinant VR1, 3 min incubation in antagonist, dose dependent) is “completely abolished”. Besides, the IC50 at hVR1 receptors [1] (recombinant human VR1, PMA at low pH, Ca2+ influx, read-out: IC50, PKC phosphorylation at low pH) is 70 nM; at hVR1 receptors [1] (recombinant human VR1, stimulus 0.015% H2O2, Ca2+ influx, read-out: IC50, H2O2 reactive oxygen species), 39 nM; on hVR1 receptors [1] (recombinant human VR1, stimulus anandamide 10 μM, Ca2+ influx, read-out: IC50, Anandamide), 41 nM; at hVR1 receptors [1] (setting [9]), 23 nM and 40 nM; on Rat VR1 [2] (recombinant rat VR1, PMA at low pH, Ca2+ influx, read-out: IC50, PKC phosphorylation at low pH) it was 47 nM; on Rat VR1 [2] (recombinant rat VR1, stimulus 0.015% H2O2, Ca2+ influx, read-out: IC50, H2O2) it was 33 nM. The IC50 on Rat VR1 [2] (setting [10]) was 38 nM; at Rat VR1 [2] (recombinant rat VR1, stimulus low pH (pH 5.9), Ca2+ influx, read-out: IC50, Low pH), 170 nM. This compound gave a Ki on hVR1 receptors [4] of 3.37 nM. Moreover, the “Estimated pA2” value in experiment [5] is reported as 8.0 +/− 0.02. The “increase in intracellular Ca2+ caused by acidic solutions, anandamide, PMA at low pH and H2O2” value at Rat VR1 [2] (rat recombinant VR1, 3 min incubation in antagonist, dose dependent) is “completely abolished”.

(Values after patent publication US7678812B2, “Aminotetralin-derived urea modulators of vanilloid VR1 receptor” (Janssen Pharmaceutica NV, priority 2002, dated 2010).)
